Measurements: paper PMC8072159, “5-Bis-(2,6-difluoro-benzylidene) Cyclopentanone Acts as a Selective 11β-Hydroxysteroid Dehydrogenase one Inhibitor to Treat Diet-Induced Nonalcoholic Fatty Liver Disease in Mice” (Frontiers in Pharmacology, 2021)

What was measured:
[1] = system: human 11β-HSD1; set-up: method as in Lin et al., 2013; details: ref Lin et al., 2013; cited from earlier work
[2] = system: rat 11β-HSD1; set-up: method as in Lin et al., 2013; details: ref Lin et al., 2013; cited from earlier work

| Structure (SMILES) | melting point | IC50 [1] | IC50 [2] |
| --- | --- | --- | --- |
| O=C1/C(=C/c2ccc(Cl)cc2Cl)CC/C1=C\c1ccc(Cl)cc1Cl [WZS01, (2E,5E)-2,5-bis(2,4-dichlorobenzylidene) Cyclopentanone] | 209.4 to 212 °C | – | – |
| Cc1ccc(/C=C2\CC/C(=C\c3ccc(C)cc3C)C2=O)c(C)c1 [WZS03, (2E,5E)-2,5-bis(2,4-dimethylbenzylidene) Cyclopentanone] | 128.8 to 131.8 °C | – | – |
| O=C1/C(=C/c2cccc(Cl)c2Cl)CC/C1=C\c1cccc(Cl)c1Cl [WZS04, (2E,5E)-2,5-bis(2,3-dichlorobenzylidene) Cyclopentanone] | 204.6 to 206.8 °C | – | – |
| O=C1C(=Cc2ccccc2Br)CCC1=Cc1ccccc1Br [5-bis-(2-bromo-benzylidene) cyclopentanone] | – | 346 nM | 148 nM |

Continued, in another order:

| melting point | Structure (SMILES) | IC50 [1] | IC50 [2] |
| --- | --- | --- | --- |
| 195 to 197.8 °C | COc1cc(OC)c(/C=C2\CC/C(=C\c3c(OC)cc(OC)cc3OC)C2=O)c(OC)c1 [WZS05, (2E,5E)-2,5-bis(2,4,6-Trimethoxybenzylidene) Cyclopentanone] | – | – |
| 208.1 to 209.8 °C | O=C1/C(=C/c2cc(F)ccc2F)CC/C1=C\c1cc(F)ccc1F [WZS07, (2E,5E)-2,5-bis(2,5-difluorobenzylidene) Cyclopentanone] | – | – |
